Measurements: PubChem BioAssay AID1645864 (Buhrlage Lab, Dana-Farber Cancer Institute and Novartis …, 2021)
The source made the active and inactive calls.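 Rule for the calls: active = maximal inhibition of USP17 at or above 30% in the confirmation dose-response, a value not among the printed readouts; inactive = the rest.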

What follows are compounds tested against Ubiquitin carboxyl-terminal hydrolase 17-like protein 5 (Homo sapiens) (UniProt A8MUK1) (assay: ubiquitin-specific protease 17 inhibitors, concentration series, biochemical, verification of primary actives (AID 1645864)). Conditions: purified USP17, ubiquitin-rhodamine cleavage fluorescence, 3 h.
Ubiquitin carboxyl-terminal hydrolase 17-like protein 5 (Homo sapiens), sequence (A8MUK1 whole entry, looked up): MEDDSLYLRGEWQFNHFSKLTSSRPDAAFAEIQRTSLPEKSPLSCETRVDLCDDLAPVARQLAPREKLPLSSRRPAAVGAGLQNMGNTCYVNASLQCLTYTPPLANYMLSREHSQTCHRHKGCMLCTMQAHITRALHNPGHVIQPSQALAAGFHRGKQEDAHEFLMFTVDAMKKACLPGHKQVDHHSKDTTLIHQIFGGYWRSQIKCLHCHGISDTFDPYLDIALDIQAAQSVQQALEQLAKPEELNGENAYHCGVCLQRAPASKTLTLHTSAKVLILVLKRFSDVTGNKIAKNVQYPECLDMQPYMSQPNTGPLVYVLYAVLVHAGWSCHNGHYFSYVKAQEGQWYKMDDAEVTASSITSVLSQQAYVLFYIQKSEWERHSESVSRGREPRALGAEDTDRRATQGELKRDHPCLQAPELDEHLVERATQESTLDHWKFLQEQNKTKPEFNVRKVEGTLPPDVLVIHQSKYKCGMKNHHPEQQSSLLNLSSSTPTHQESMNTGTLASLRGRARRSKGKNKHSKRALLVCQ
For NS(=O)(=O)c1cc(C(=O)OCC(=O)c2ccc3c(c2)OCCO3)ccc1Cl, the IC50 was > 50 µM (inactive).
For Cc1cc(=O)c2c(O)oc(O)c3c(O)cc(=O)c1c32, the IC50 was 24.4 µM.
In the case of COCCCNC(=O)Cn1c(=O)n(Cc2ccc(C(=O)NCc3ccccc3OC)cc2)c(=O)c2ccccc21, the IC50 is reported as > 50 µM (inactive).
In the case of O=C1C[C@@H]2O[C@H](CNC(=O)[C@@H]3CN(CCN3C(=O)C3CCOCC3)C(=O)[C@@H]3C[C@@H](CN3Cc3ccc(F)c(F)c3)N1)[C@@H](O)[C@H]2O, the IC50 is reported as > 50 µM (inactive).
For Cc1nn(-c2ccccc2)c(C)c1C(=O)OCC(=O)Nc1cccc(Br)c1, the IC50 was 40.6 µM.
For Cc1cc(C)n2nc(CNc3cccc(Cl)c3)nc2n1, the IC50 was > 50 µM (inactive).
With Cc1ccc(NC(=O)c2ccc(Nc3nnc(C)c4ccccc34)cc2)cc1 the IC50 was 38.1 µM.
Compound COCCn1ccc2nc(C)c(C(=O)Nc3ccc4c(c3)OCCO4)cc2c1=O has an IC50 of 37 µM.
In the case of CC(=O)c1cccc(NC(=O)c2ccc3[nH]c4c(c3c2)CC(C)CC4)c1 (stereo not drawn), the IC50 is reported as > 50 µM (inactive).
Work on COc1ccc(NC(=O)c2ccnc(Nc3ccc(OC)cc3)c2)cc1 yielded an IC50 of 42.4 µM.
In the case of O=C(CNS(=O)(=O)c1ccc(F)cc1)N1CCCC(c2nnc3ccccn23)C1 (stereo not drawn), the IC50 is reported as > 50 µM (inactive).
Compound CCc1ccc(NC(=O)Cc2nnc(-c3ccc4ncccc4c3)o2)cc1 has an IC50 of 35.5 µM.
For COc1ccc(-c2cc3nc(C)cc(Nc4ccc(F)cc4)n3n2)cc1OC, the IC50 was > 50 µM (inactive).
For Cc1nnc(C(=O)Nc2ccc(C(=O)NCc3ccccc3C)cc2)s1, the IC50 was 27.2 µM.
In the case of O=C(NCc1ccc(F)cc1)N1CCC2(C1)Nc1cccnc1NC2=NCc1ccccc1 (stereo not drawn), the IC50 is reported as > 50 µM (inactive).
With Cc1ccccc1NC(=O)c1ccc(N2CCCCC2)nn1 the IC50 was > 50 µM (inactive).
In the case of CC(=O)c1ccc(NC(=O)C2CCN(c3cncnc3N3CCCC3)CC2)cc1, the IC50 is reported as > 50 µM (inactive).
Compound O=C1Nc2ccccc2C(=O)C1C(c1ccc(Cl)cc1)C1C(=O)Nc2ccccc2C1=O (stereo not drawn) has an IC50 of 35.6 µM.
For O=C(Cc1noc2ccccc12)N1CCN(c2ccc([N+](=O)[O-])cc2)CC1, the IC50 was > 50 µM (inactive).
O=C(Cn1c(=O)n(Cc2ccc3c(c2)OCO3)c(=O)c2ncccc21)c1ccc(Cl)cc1 gave an IC50 of 33 µM.
COc1cccc(NC(=O)Nc2nccn(-c3ccc(F)cc3)c2=O)c1 gave an IC50 of 13.9 µM.
Cc1sc(-c2cccnc2)nc1OC(=O)c1ccc(Cl)c(Cl)c1 was tested, and the IC50 was > 50 µM (inactive).
For N[C@@H](Cc1ccccc1)C(=O)N1CCC2(CC1)CN(C(=O)c1ccc(Cl)cc1)CCO2, the IC50 was > 50 µM (inactive).
For COc1ccc(Cl)cc1-n1nnc(C(=O)N2CCc3ccccc3C2)c1C, the IC50 was > 50 µM (inactive).
Work on COc1ccc(C(=O)Nc2n[nH]c(C)c2-c2cccc(C)c2)c(OC)c1 yielded an IC50 of 2.74 µM.
For O=[N+]([O-])c1ccc2c(c1)nc1n2CCN(Cc2ccco2)C1, the IC50 was > 50 µM (inactive).
Work on N#Cc1ccccc1Cn1c(=O)n(CCCCC(=O)NCCc2ccccc2)c(=O)c2ccccc21 yielded an IC50 of 10 µM.
O=C(CSc1ncnc2c1oc1ccccc12)Nc1ccc2c(c1)OCCO2 showed an IC50 of 29 µM.
For Cc1sc2nc(CN3CCCC3)nc(NCCc3ccc(Cl)cc3)c2c1C, the IC50 was > 50 µM (inactive).
CCCn1cc(C(=O)N2CCC3(CC2)CC2(CO3)Nc3ccccc3-n3cccc32)c(C)n1 (stereo not drawn) was tested, and the IC50 was 27.6 µM.
Work on COc1cc(C(=O)NC(Cc2ccccc2)c2nc3ccccc3[nH]2)cc(OC)c1OC (stereo not drawn) yielded an IC50 of 2.62 µM.
CCOc1ccc(-n2c(SCC(=O)N3CC(=O)Nc4ccccc43)nnc2-c2ccc(OC)cc2)cc1 showed an IC50 of 42.5 µM.
Compound O=c1c2ccccc2oc2nc(-c3cccs3)n(-c3ccccc3)c(=O)c12 has an IC50 of 2.67 µM.
Cc1cc(C)c2cc(C(=O)NC3CCN(Cc4ccccc4)CC3)[nH]c2c1 gave an IC50 of 14.7 µM.
With COc1ccc(OC)c(NC(=O)C2=C(C)Nc3ncnn3C2c2ccccc2OCc2ccc(C)cc2)c1 (stereo not drawn) the IC50 was 12.2 µM.
In the case of Nc1ccccc1SCc1noc(-c2cccs2)n1, the IC50 is reported as > 50 µM (inactive).
In the case of Cc1ccc2c(=O)c(C(=O)Nc3ccccc3)cn(CC(=O)NC3CCCCC3)c2n1, the IC50 is reported as < 0.05 µM.
With COc1ccc(CCNC(=O)c2ccc3ccccc3c2)cc1OC the IC50 was > 50 µM (inactive).
Cc1cc(Cl)ccc1NC(=O)c1cc(-c2cccnc2)n[nH]1 was tested, and the IC50 was > 50 µM (inactive).
In the case of COc1ncccc1CN1CCn2c(Cn3cccn3)cnc2C1C (stereo not drawn), the IC50 is reported as > 50 µM (inactive).
COc1ccc(C2CC(=O)Nc3n[nH]c(-c4ccccc4)c32)cc1OC (stereo not drawn) was tested, and the IC50 was 29.7 µM.
Cc1cc(C)c(NC(=O)Cn2c(=O)n(CCC(=O)NCc3ccc4c(c3)OCO4)c(=O)c3sccc32)c(C)c1 showed an IC50 of 3.02 µM.
In the case of O=C1COc2ccccc2N1Cc1noc(-c2ccccc2)n1, the IC50 is reported as > 50 µM (inactive).
For Cc1noc(C)c1COc1cccc(C(=O)Nc2cc(Cl)ccc2-n2cncn2)c1, the IC50 was > 50 µM (inactive).
Cc1c(-c2nsc(NC(=O)c3ccc(Cl)cc3)n2)nnn1-c1ccccc1F gave an IC50 of 0.674 µM.
In the case of COc1ccccc1NC(=O)Nc1ccc(NC(=O)c2ccccc2O)cc1, the IC50 is reported as 47.5 µM.
CC(OC(=O)c1c2c(nc3ccccc13)CCCCC2)C(=O)Nc1ccc2ccccc2c1 (stereo not drawn) showed an IC50 of 3.81 µM.
With COc1cc(NC(=O)c2cc(CN3CCOCC3)on2)cc(OC)c1 the IC50 was > 50 µM (inactive).
COc1ccccc1NC(=O)c1cc(-c2ccccn2)nc2ccccc12 showed an IC50 of 9.53 µM.
For COc1ccc(C)cc1NC(=O)C1CC(=O)Nc2nc(SCc3ccccc3)nn21 (stereo not drawn), the IC50 was 18.9 µM.
COc1cccc(NC(=O)C2C3C=CC4(O3)C2C(=O)N(CCc2ccccc2Cl)C4C(=O)NC2CCCCC2)c1 (stereo not drawn) showed an IC50 of 28.2 µM.
COc1cc(OC)cc(-n2c(=O)c3sccc3n(CC(=O)Nc3ccc(C)cc3)c2=O)c1 was tested, and the IC50 was 10.1 µM.
With CCc1c(Cl)c(O)c(Cl)c(O)c1C(=O)O[C@H]1C(C)O[C@@H](OC/C2=C\C=C\CC(O)/C(C)=C/C(CC)C(O[C@@H]3OC(C)(C)[C@H](O)C(OC(=O)C(C)C)[C@@H]3O)/C(C)=C/C(C)=C/CC(C(C)O)OC2=O)[C@@H](OC)C1O (stereo partly drawn) the IC50 was > 50 µM (inactive).
COc1cccc(-n2nnc(C(=O)Nc3ccc(C)c(C)c3)c2C)c1 was tested, and the IC50 was > 50 µM (inactive).
For CC(=O)c1ccc(NC(=O)/C(=C/c2ccco2)n2nnnc2-c2ccccc2)cc1, the IC50 was > 50 µM (inactive).
With Cc1ccc(NC(=O)CNC(=O)c2cc3ccccc3o2)cc1 the IC50 was 14.6 µM.
In the case of CCn1ccc2c(cc(C(=O)Nc3ccccc3F)n2C)c1=O, the IC50 is reported as > 50 µM (inactive).
Work on CC(C)c1cc(NCc2ccccc2)n2nc(-c3cccnc3)nc2n1 yielded an IC50 of 18.9 µM.
In the case of CN1CCN(C(=O)c2cc(-c3ccn(-c4ccccc4)n3)n3ccccc23)CC1, the IC50 is reported as > 50 µM (inactive).
Work on CCCCNc1nc2c(-c3ccccc3)nnn2c2ccccc12 yielded an IC50 of 3.08 µM.
In the case of NS(=O)(=O)c1cccc(NS(=O)(=O)c2ccc(/C=C/C(=O)OCC(=O)c3ccc(Br)cc3)cc2)c1, the IC50 is reported as > 50 µM (inactive).
Compound Cc1cc(C2CC(=O)Nc3c2c(C)nn3-c2nc3ccccc3[nH]2)c(C)s1 (stereo not drawn) has an IC50 of 23 µM.
Work on CCCCN(C)C(=O)c1cc2c(=O)n3cccc(C)c3nc2n1Cc1ccccc1 yielded an IC50 of 39.8 µM.
In the case of O=C(CN1C(=O)c2ccccc2Sc2ccc(C(=O)N3CCCC3)cc21)Nc1ccccc1Cl, the IC50 is reported as 34.1 µM.
In the case of COc1ccccc1CC(=O)Nc1nc2ccccc2[nH]1, the IC50 is reported as 33.3 µM.
With CCOc1ccccc1NC(=O)COc1cc(OC)ccc1C(=O)c1ccccc1 the IC50 was > 50 µM (inactive).
Compound CCc1ccc(-n2nc(C)c3c2NC(=O)CC3C(=O)c2ccc3c(c2)OCCO3)cc1 (stereo not drawn) has an IC50 of 27.5 µM.
Compound C/C=C1/C2=CCCN3C(=O)O[C@H]([C@H]1O)[C@H]23 has an IC50 of 1.42 µM.
In the case of COc1cc(C2SCC(=O)Nc3c2c(-c2ccccc2)nn3-c2ccccc2)cc(OC)c1OC (stereo not drawn), the IC50 is reported as > 50 µM (inactive).
Cn1c(=O)[nH]c(=O)c2c1nc1n(CCc3ccccc3)c(-c3ccccc3)cn21 showed an IC50 of 33.1 µM.
Cn1ncc2c(=O)n(Cc3cccc(Cl)c3)cnc21 was tested, and the IC50 was > 50 µM (inactive).
With COc1ccc(CNC(=O)C(C)n2nc(-c3ccco3)c(-c3cc(C)no3)cc2=O)cc1 (stereo not drawn) the IC50 was 25.1 µM.
Work on COc1ccc(Cl)cc1NC(=O)c1cc(-c2ccccn2)n[nH]1 yielded an IC50 of 0.202 µM.
For Fc1cc(F)c2[nH]cc(-c3nnnn3-c3ccc4ccccc4c3)c2c1, the IC50 was 6.56 µM.
For CCOc1ccc(NC(=O)COc2cccc3c2CCN(CC)C3=O)cc1, the IC50 was > 50 µM (inactive).
Work on O=c1c(Nc2cccc(F)c2)nc2ccncc2n1Cc1ccccc1 yielded an IC50 of 12.5 µM.
Work on Cc1nc(C(=O)Nc2cccc(Cl)c2Cl)nn1-c1cc(Cl)cc(Cl)c1 yielded an IC50 of 0.135 µM.
In the case of COCCCN1CCS(=O)(=O)c2c(Cl)c(F)nc(Oc3ccc(C#N)cc3)c21, the IC50 is reported as > 50 µM (inactive).
For CNC(=O)C1CN(C(=O)c2ccc(OC)cc2)CC12CCCC2 (stereo not drawn), the IC50 was > 50 µM (inactive).
For Cc1cc(NC(=O)c2nnn(-c3ccccc3Cl)c2C)no1, the IC50 was > 50 µM (inactive).
O=C1C=C(O)c2c(O)cccc2C1=O showed an IC50 of 11.9 µM.
In the case of Cc1cc(NCC2CC2)n2nc(Nc3cc(Cl)ccc3C)nc2n1, the IC50 is reported as 30.4 µM.
For COC(=O)c1ccc(NC(=O)CSc2nnc(-c3ccc(O)cc3)n2Cc2ccco2)cc1, the IC50 was 24.9 µM.
For O=c1sc2ccccc2c(=O)n1Cc1cccc(C(F)(F)F)c1, the IC50 was > 50 µM (inactive).
COc1cccc(NC(=O)Nc2ccc3nc4n(c(=O)c3c2)CCCC4)c1 showed an IC50 of 9.31 µM.
For CC(C)Cn1cc(OC(=O)c2ccc(F)cc2)c2c1nc(-c1ccc(F)cc1)n1c3ccccc3nc21, the IC50 was > 50 µM (inactive).
In the case of Clc1ccc(C[n+]2cc(-c3ccc(Cl)cc3)n3c2CCC3)cc1, the IC50 is reported as > 50 µM (inactive).
For O=S(c1ccc2ccccc2c1)c1cnns1 (stereo not drawn), the IC50 was > 50 µM (inactive).
With CN(C)S(=O)(=O)c1ccc(N2CCCC2)c(C(=O)Nc2ccc(-c3cn4ccsc4n3)cc2)c1 the IC50 was > 50 µM (inactive).
With Cc1nn(CC(=O)NCc2ccccc2F)c2ccccc12 the IC50 was 47 µM.
For CC(C)N1CC2CN(C(=O)c3ccccc3)CCN2Cc2ccccc21 (stereo not drawn), the IC50 was > 50 µM (inactive).
With O=C(Nc1cc(Cl)ccc1-n1cncn1)c1ccc(S(=O)(=O)N2CCCC2)cc1 the IC50 was > 50 µM (inactive).
In the case of Fc1ccccc1Cc1nc(-c2ccc3nncn3c2)no1, the IC50 is reported as > 50 µM (inactive).
For Cc1nn(-c2ccc(Cl)cc2)c2[nH]c(=O)c(CNCC3CCCO3)cc12 (stereo not drawn), the IC50 was > 50 µM (inactive).
O=C(COC(=O)c1ccc2ncsc2c1)Nc1ccccc1F was tested, and the IC50 was > 50 µM (inactive).
Work on Cc1cc(C(=O)Nc2ccc3nc(N4CCN(c5ncccn5)CC4)cc(C)c3c2)ccc1[N+](=O)[O-] yielded an IC50 of 1.68 µM.
With COc1ccc(NC(=O)c2nnc(C(=O)NCCN3CCCCCC3)s2)cc1 the IC50 was 3.05 µM.
Compound O=C(Cc1noc2ccccc12)NCC(=O)Nc1ccc(Cl)cc1 has an IC50 of 18.1 µM.
